Series [1] is described as follows: Cytotoxicity in TZM-GFP cells (XTT). The class given is cell-based. To be noted: human, 72 hours exposure, XTT. How it is done: (§1) The cytotoxicity of each compound was also determined in TZM-GFP cells. Cells were plated at a density of 1×10^4 cells per well in a 96-well plate and were continuously exposed to increasing concentrations of a compound for 72 hours. The number of viable cells in each well was determined using a Cell Proliferation Kit II (XTT), and 50% cytotoxicity concentration (CC50) values were determined. All the cell-based assays were conducted in duplicate and in at least two independent experiments. For the EC50 and CC50 dose responses, values were plotted in GraphPad Prism 5 and analyzed with the log (inhibitor) vs. normalized response-variable slope equation. Final values were calculated in each independent assay and the average values were determined. Statistical analysis (calculation of standard deviation) was performed by using Microsoft Excel.
(Formazan colour is commonly taken as a measure of viable cells.)

Another series deals with HIV-1. The series can be described thus: Anti-HIV-1 activity in TZM-GFP cells (viral LTR-activated GFP expression). The class given is cell-based. The following applies: for inhibition at 2 µM: Human immunodeficiency virus 1, 2 μM compound; for inhibition at 2 µM / inhibition at 20 µM: HIV-1 MOI=1; for inhibition at 20 µM: Human immunodeficiency virus 1, 20 μM compound; for EC50: Human immunodeficiency virus 1, HIV-1 strain MOI=1, GFP positive cells counted after 48 hours. As for the experimental part: The potency of HIV-1 inhibition by a compound was based on its inhibitory effect on viral LTR-activated GFP expression compared with that of compound-free (DMSO) controls. Briefly, TZM-GFP cells were plated at density of 1×10^4 cells per well in a 96-well plate. 24 hours later, media was replaced with increasing concentrations of compound. 24 hours post treatment, cells were exposed to an HIV-1 strain (MOI=1).
as §1

Series [2] has as its target covalently-crosslinked hexameric CA A14C/E45C/W184A/M185A (CA121) (Human immunodeficiency virus type 1 group M subtype B, UniProt P12493, A146C/E177C/M317A/W316A). The series can be described thus: Thermal shift assay (TSA), CA hexamer stability. The class given is binding, HIV-1. To be noted: compound 20 μM, ΔTm=Tm−T0 vs DMSO.

The CC50 is the concentration that lowers cell viability or growth by half. By inhibition is commonly meant how much of the control response was suppressed. Higher therefore signals a response far below the control. Turning to `CN(C(=O)[C@H](Cc1ccccc1)NC(=O)Cc1ccc2ccccc2c1)c1cccc(Cl)c1` [Example 13, (S)—N-(3-chlorophenyl)-N-methyl-2-(2-(naphthalen-2-yl)acetamido)-3-phenylpropanamide], the 50% cytotoxic concentration (CC50) at 72 h in series [1] was < 50 µM. In the series with HIV-1, this molecule showed an inhibition at 2 µM of 0% and an inhibition at 20 µM of 94%. In addition, the “TSA ΔTm (° C.)” value in series [2] amounted to 4.3 °C.

By EC50 is commonly meant the concentration that produces a half-maximal response. Read a high EC50 as a less potent agent. Turning to `Cc1ccc(N(C)C(=O)[C@H](Cc2ccccc2)NC(=O)Cc2cccc3ccccc23)cc1` [Example 17, (S)—N-methyl-2-(2-(naphthalen-1-yl)acetamido)-3-phenyl-N-(p-tolyl)propanamide], in series [1], the CC50 at 72 h is < 50 µM. In the series with HIV-1, this molecule came in with a 50% effective concentration (EC50) of 1 ± 0.2 µM. Moreover, the “TSA ΔTm (° C.)” value in series [2] was 5.7 °C.

On to `Cc1cn(CC(=O)N[C@@H](Cc2ccccc2)C(=O)N(C)c2ccccc2)c(=O)[nH]c1=O` [Example 42, (S)—N-methyl-2-(2-(5-methyl-2,4-dioxo-3,4-dihydropyrimidin-1(2H)-yl)acetamido)-N,3-diphenylpropanamide], for which, in series [1], the half-maximal cytotoxic concentration (CC50) at 72 h was > 50 µM. In the series on HIV-1, this molecule came in with an inhibition at 2 µM of 35% and an inhibition at 20 µM of 95%. Also, in series [2], the “TSA ΔTm (° C.)” value came out at 0.5 °C.

For `Cc1ccc(N(C)C(=O)[C@H](Cc2ccccc2)NC(=O)Cn2cc(C)c(=O)[nH]c2=O)cc1` [Example 43, (S)—N-methyl-2-(2-(5-methyl-2,4-dioxo-3,4-dihydropyrimidin-1(2H)-yl)acetamido)-3-phenyl-N-(p-tolyl)propenamide], in series [1], the CC50 at 72 h is > 50 µM. In the series with HIV-1, this molecule yielded an inhibition at 2 µM of 7% and an inhibition at 20 µM of 85%. Also, the “TSA ΔTm (° C.)” value in series [2] was 0.6 °C.

On to `CCN(C(=O)[C@H](Cc1ccccc1)NC(=O)Cc1cccc2ccccc12)c1ccccc1` [Example 21, (S)—N-ethyl-2-(2-(naphthalen-1-yl)acetamido)-N,3-diphenylpropanamide], for which, in series [1], the CC50 at 72 h is < 50 µM. Besides, in the series with HIV-1, the concentration giving a half-maximal response (EC50) stood at 1.8 ± 0.09 µM. Besides, the “TSA ΔTm (° C.)” value in series [2] is 4.9 °C.

Consider `CN(C(=O)[C@H](Cc1ccccc1)NC(=O)Cc1ccc2ccccc2c1)c1ccc(Cl)cc1` [Example 12, (S)—N-(4-chlorophenyl)-N-methyl-2-(2-(naphthalen-2-yl)acetamido)-3-phenylpropanamide], for which, in series [1], the CC50 at 72 h was < 50 µM. Besides, in the series on HIV-1, the response was half-maximal at 0.63 ± 0.02 µM (EC50). Further, in series [2], the “TSA ΔTm (° C.)” value was 7.0 °C.

Consider `Cc1cn(CC(=O)N[C@@H](Cc2ccccc2)C(=O)N(C)c2ccc(F)cc2)c(=O)[nH]c1=O` [Example 46, (S)—N-(4-fluorophenyl)-N-methyl-2-(2-(5-methyl-2,4-dioxo-3,4-dihydropyrimidin-1(2H)-yl)acetamido)-3-phenylpropanamide], for which the CC50 at 72 h in series [1] is > 50 µM. Moreover, in the series with HIV-1, at 2 µM the inhibition was 6% and the inhibition at 20 µM is 94%. For the same molecule, in series [2], the “TSA ΔTm (° C.)” value was 0 °C.

In the case of `CN(C(=O)[C@H](Cc1ccccc1)NC(=O)CNC(=O)c1ccccc1)c1cccc(Br)c1` [Example 40, (S)—N-(2-((1-((3-bromophenyl)(methyl)amino)-1-oxo-3-phenylpropan-2-yl)amino)-2-oxoethyl)benzamide], in series [1], the half-maximal cytotoxic concentration (CC50) at 72 h is > 50 µM. In the series on HIV-1, 2 µM produced 38% inhibition and testing at 20 µM gave an inhibition of 97%. In addition, the “TSA ΔTm (° C.)” value in series [2] was 2.2 °C.

Consider `Cc1cn(CC(=O)N[C@@H](Cc2ccccc2)C(=O)N(C)c2ccc(Cl)cc2)c(=O)[nH]c1=O` [Example 44, (S)—N-(4-chlorophenyl)-N-methyl-2-(2-(5-methyl-2,4-dioxo-3,4-dihydropyrimidin-1(2H)-yl)acetamido)-3-phenylpropanamide], for which the CC50 at 72 h in series [1] was > 50 µM. The half-maximal effective concentration (EC50) in the series with HIV-1 amounted to 1.7 ± 0.2 µM. For the same molecule, the “TSA ΔTm (° C.)” value in series [2] amounted to 1.7 °C.

Take `Cc1ccc(N(C)C(=O)[C@H](Cc2ccccc2)NC(=O)CN2C(=O)NC3(CCCCC3)C2=O)cc1` [Example 24, 2-(2-(2,4-dioxo-1,3-diazaspiro[4.5]decan-3-yl)acetamido)-N-methyl-3-phenyl-N-(p-tolyl)propenamide]: the cytotoxic concentration (CC50) at 72 h in series [1] was > 100 µM. Also, the EC50 in the series with HIV-1 was determined as 1.9 ± 0.5 µM. Also, the “TSA ΔTm (° C.)” value in series [2] worked out at 2.7 °C.

For the molecule `CN(C(=O)[C@H](Cc1ccccc1)NC(=O)Cn1c(=O)[nH]c2ccccc2c1=O)c1ccccc1` [Example 31, (S)-2-(2-(2,4-dioxo-1,4-dihydroquinazolin-3(2H)-yl)acetamido)-N-methyl-N,3-diphenylpropanamide], the CC50 at 72 h in series [1] was > 100 µM. In the series with HIV-1, this molecule had an EC50 of 6.9 ± 0.8 µM. The “TSA ΔTm (° C.)” value in series [2] was determined as 2.7 °C.

`CN(C(=O)[C@H](Cc1ccccc1)NC(=O)Cc1cccc2ccccc12)c1cccc(Cl)c1` [Example 19, (S)—N-(3-chlorophenyl)-N-methyl-2-(2-(naphthalen-1-yl)acetamido)-3-phenylpropanamide]: the CC50 at 72 h in series [1] is < 50 µM. In addition, in the series on HIV-1, the inhibition at 2 µM was found to be 53% and testing at 20 µM gave an inhibition of 96%. The “TSA ΔTm (° C.)” value in series [2] was determined as 4.4 °C.

Regarding `Cc1ccc(C)c2c1NC(=O)C2CC(=O)N[C@@H](Cc1ccccc1)C(=O)N(C)c1ccc(F)cc1` (stereo partly drawn) [Example 6, (2S)-2-(2-(4,7-dimethyl-2-oxoindolin-3-yl)acetamido)-N-(4-fluorophenyl)-N-methyl-3-phenylpropanamide], in series [1], the CC50 at 72 h is > 100 µM. This molecule yielded a half-maximal effective concentration (EC50) with HIV-1 of 5.4 ± 0.5 µM. For the same molecule, the “TSA ΔTm (° C.)” value in series [2] is −1.7 °C.

In the case of `Cc1cn(CC(=O)N[C@@H](Cc2ccccc2)C(=O)N(C)c2cccc(F)c2)c(=O)[nH]c1=O` [Example 47, (S)—N-(3-fluorophenyl)-N-methyl-2-(2-(5-methyl-2,4-dioxo-3,4-dihydropyrimidin-1(2H)-yl)acetamido)-3-phenylpropanamide], the CC50 at 72 h in series [1] is > 50 µM. Also, in the series with HIV-1, the inhibition at 2 µM is 0% and the inhibition at 20 µM stood at 74%. For the same molecule, the “TSA ΔTm (° C.)” value in series [2] came out at 0.9 °C.

Consider `CN(C(=O)[C@H](Cc1ccccc1)NC(=O)CN1C(=O)NC2(CCCCC2)C1=O)c1cccc(Cl)c1` [Example 28, N-(3-chlorophenyl)-2-(2-(2,4-dioxo-1,3-diazaspiro[4.5]decan-3-yl)acetamido)-N-methyl-3-phenylpropanamide], for which, in series [1], the cytotoxic concentration (CC50) at 72 h was < 50 µM. In the series with HIV-1, this molecule had an inhibition at 2 µM of 9% and an inhibition at 20 µM of 98%. Further, the “TSA ΔTm (° C.)” value in series [2] came out at 3.3 °C.

Turning to `Cc1cccc2c1NC(=O)C2CC(=O)N[C@@H](Cc1ccccc1)C(=O)N(C)c1cccc(F)c1` (stereo partly drawn) [Example 4, (2S)—N-(3-fluorophenyl)-N-methyl-2-(2-(7-methyl-2-oxoindolin-3-yl)acetamido)-3-phenylpropanamide], the CC50 at 72 h in series [1] is > 50 µM. In the series with HIV-1, this molecule had an inhibition at 2 µM of 0% and an inhibition at 20 µM of 93%. The “TSA ΔTm (° C.)” value in series [2] was −0.9 °C.

For `Cc1ccc(C)c2c1NC(=O)C2CC(=O)N[C@@H](Cc1ccccc1)C(=O)N(C)c1cccc(Cl)c1` (stereo partly drawn) [Example 9, (2S)—N-(3-chlorophenyl)-2-(2-(4,7-dimethyl-2-oxoindolin-3-yl)acetamido)-N-methyl-3-phenylpropanamide], the midpoint of cytotoxicity in series [1], the CC50 at 72 h, lay at 43 ± 2 µM. In the series on HIV-1, this molecule showed an EC50 of 2.1 ± 0.2 µM. For the same molecule, in series [2], the “TSA ΔTm (° C.)” value was −2.4 °C.

Take `Cc1cccc2c1NC(=O)C2CC(=O)N[C@@H](Cc1ccccc1)C(=O)N(C)c1ccc(Cl)cc1` (stereo partly drawn) [Example 2, (2S)—N-(4-chlorophenyl)-N-methyl-2-(2-(7-methyl-2-oxoindolin-3-yl)acetamido)-3-phenylpropanamide]: the CC50 at 72 h in series [1] was ~50 µM. Also, in the series on HIV-1, 2 µM produced 17% inhibition and the inhibition at 20 µM was 96%. The “TSA ΔTm (° C.)” value in series [2] is −0.4 °C.

Turning to `CCN(C(=O)[C@H](Cc1ccccc1)NC(=O)CN1C(=O)NC2(CCCCC2)C1=O)c1ccccc1` [Example 30, 2-(2-(2,4-dioxo-1,3-diazaspiro[4.5]decan-3-yl)acetamido)-N-ethyl-N,3-diphenylpropanamide], the CC50 at 72 h in series [1] was > 100 µM. In the series with HIV-1, the half-maximal effective concentration (EC50) turned out to be 7.6 ± 0.9 µM. Also, the “TSA ΔTm (° C.)” value in series [2] is 2.0 °C.

On to `CN(C(=O)[C@H](Cc1ccccc1)NC(=O)CN1C(=O)NC2(CCCCC2)C1=O)c1cccc(Br)c1` [Example 29, N-(3-bromophenyl)-2-(2-(2,4-dioxo-1,3-diazaspiro[4.5]decan-3-yl)acetamido)-N-methyl-3-phenylpropanamide], for which the half-maximal cytotoxic concentration (CC50) at 72 h in series [1] is > 50 µM. Further, the concentration giving a half-maximal response (EC50) in the series on HIV-1 is > 20 µM. Moreover, the “TSA ΔTm (° C.)” value in series [2] came out at 1.5 °C.

Take `Cc1ccc(N(C)C(=O)[C@H](Cc2ccccc2)NC(=O)Cc2ccc3ccccc3c2)cc1` [Example 11, (S)—N-methyl-2-(2-(naphthalen-2-yl)acetamido)-3-phenyl-N-(p-tolyl)propanamide]: in series [1], the CC50 at 72 h was < 50 µM. In the series with HIV-1, this molecule had an EC50 of 0.99 ± 0.005 µM. Moreover, the “TSA ΔTm (° C.)” value in series [2] was 6.4 °C.

Consider `CN(C(=O)[C@H](Cc1ccccc1)NC(=O)Cc1cccc2ccccc12)c1ccccc1` [Example 16, (S)—N-methyl-2-(2-(naphthalen-1-yl)acetamido)-N,3-diphenylpropanamide], for which, in series [1], the CC50 at 72 h was < 50 µM. Besides, in the series on HIV-1, the midpoint of the response, the EC50, lay at 1.1 ± 0.04 µM. In series [2], the “TSA ΔTm (° C.)” value worked out at 6.0 °C.

These data come from patent publication US11850247B2, “Antiviral compounds” (REGENTS OF THE UNIVERSITY OF MINNESOTA, priority 2020, dated 2023).
